Results on 36 compounds are retold here after patent US20240383908A1, “SYNTHESIS AND APPLICATION OF PHOSPHATASE DEGRADER” (HINOVA PHARMACEUTICALS INC., priority 2021, published 2024).

This assay deals with T1, SHP2 protein (Homo sapiens, UniProt Q06124).
T1 sequence (Q06124 1-593): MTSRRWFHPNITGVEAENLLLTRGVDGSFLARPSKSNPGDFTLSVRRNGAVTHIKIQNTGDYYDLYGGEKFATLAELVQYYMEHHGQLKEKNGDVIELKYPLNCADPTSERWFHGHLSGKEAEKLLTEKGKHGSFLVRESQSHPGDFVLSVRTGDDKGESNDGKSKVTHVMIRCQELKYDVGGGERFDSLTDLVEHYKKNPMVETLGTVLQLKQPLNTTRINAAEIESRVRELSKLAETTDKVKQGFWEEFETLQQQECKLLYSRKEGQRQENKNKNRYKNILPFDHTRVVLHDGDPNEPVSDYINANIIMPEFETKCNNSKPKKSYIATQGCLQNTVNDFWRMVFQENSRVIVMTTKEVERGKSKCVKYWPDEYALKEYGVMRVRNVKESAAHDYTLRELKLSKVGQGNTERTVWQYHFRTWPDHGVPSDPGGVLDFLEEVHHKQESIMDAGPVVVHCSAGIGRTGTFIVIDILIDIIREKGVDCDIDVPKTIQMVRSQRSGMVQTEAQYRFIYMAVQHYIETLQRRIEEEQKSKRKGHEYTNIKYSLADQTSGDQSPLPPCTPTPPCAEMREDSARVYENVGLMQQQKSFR
In words: Degradation activity on SHP2 protein in MIA Paca-2 cells (Western blot, DC50). It counts as cell-based. On the set-up: endogenous in cells; host or cells: MIA Paca-2 cells. The conditions noted are these: read-out: Degradation activity for differenct cell lines MIA Paca-2 (DC50). The method in brief: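 DC50 is the concentration degrading 50% of SHP2 relative to DMSO control. It was derived by fitting Western blot band densitometry (anti-SHP2, GAPDH reference) from cells exposed 24 h to 0.1–100 nM compound in 0.1% DMSO.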
A general note: In western blotting, separated proteins are transferred to a membrane and probed.
As to `CC1(N)CCN(c2cnc(-c3cccc(NC(=O)c4ccc(N5CCC(N6CC=C(c7ccc(C(=O)NCc8ccc9c(c8)CN(C8CCC(=O)NC8=O)C9=O)nn7)CC6)CC5)cc4)c3)cn2)CC1` (stereo not drawn) [Compound 407], the DC50 is greater than 1000 nM.

Take `CC1(N)CCN(c2ccc(-c3cccc(NC(=O)c4ccc(N5CCC(N6CC=C(c7ccc(C(=O)NCc8ccc9c(c8)CN(C8CCC(=O)NC8=O)C9=O)nn7)CC6)CC5)cc4)c3)cn2)CC1` (stereo not drawn) [Compound 408]: the DC50 is greater than 1000 nM.

In the case of `C[C@@H]1OCC2(CCN(c3cnc(Sc4cccc(NC(=O)c5ccc(N6CCC(N7CC=C(c8ccc(C(=O)NCc9ccc%10c(c9)CN(C9CCC(=O)NC9=O)C%10=O)nc8)CC7)CC6)cc5)c4)cn3)CC2)[C@@H]1N` (stereo partly drawn) [Compound 411], the DC50 is less than 100 nM.

As for `CC1(N)CCN(c2cnc(Sc3cccc(NC(=O)c4ccc(N5CCC(N6CC=C(c7cnc(C(=O)NCc8ccc9c(c8)CN(C8CCC(=O)NC8=O)C9=O)c(Cl)c7)CC6)CC5)c(F)c4)c3)cn2)CC1` (stereo not drawn) [Compound 413], the DC50 is less than 100 nM.

On to `CC1(N)CCN(c2cnc(Sc3cccc(NC(=O)c4ccc(-c5ccc(N6CCC7(CC6)CC(C(=O)NCc6ccc8c(c6)CN(C6CCC(=O)NC6=O)C8=O)C7)cc5)cc4)c3)cn2)CC1` (stereo not drawn) [Compound 415], for which the DC50 was greater than 1000 nM.

Regarding `CC1(N)CCN(c2cnc(Sc3cccc(NC(=O)c4ccc(C5=CCC(N6CC=C(c7ccnc(C(=O)NCc8ccc9c(c8)CN(C8CCC(=O)NC8=O)C9=O)c7)C6)CC5)c(F)c4)c3)cn2)CC1` (stereo not drawn) [Compound 416], the DC50 was greater than 1000 nM.

On to `CC1(N)CCN(c2cnc(Sc3cccc(NC(=O)c4ccc(N5CCC(N6CC=C(c7ncc(C(=O)NCc8ccc9c(c8)CN(C8CCC(=O)NC8=O)C9=O)o7)CC6)CC5)c(F)c4)c3)cn2)CC1` (stereo not drawn) [Compound 417], for which the DC50 is greater than 1000 nM.

As for `CC1(N)CCN(c2cnc(Sc3cccc(NC(=O)C4CCC(N5CCC(N6CC=C(c7ccc(C(=O)NCc8ccc9c(c8)CN(C8CCC(=O)NC8=O)C9=O)nc7)CC6)C(F)C5)CC4)c3)cn2)CC1` (stereo not drawn) [Compound 420], the 50% degradation concentration (DC50) was less than 100 nM.

On to `CC1(N)CCN(c2cnc(Sc3cccc(NC(=O)c4ccc(-c5ccc(N6CCC(C7=CCC(C(=O)NCc8ccc9c(c8)CN(C8CCC(=O)NC8=O)C9=O)CC7)CC6)cc5)cc4)c3)cn2)CC1` (stereo not drawn) [Compound 423], for which the DC50 is greater than 1000 nM.

Turning to `COC(=O)NC1(C)CCN(c2cnc(Sc3cccc(NC(=O)c4ccc(N5CCC(N6CC=C(c7ccc(C(=O)NCc8ccc9c(c8)CN(C8CCC(=O)NC8=O)C9=O)nc7)CC6)CC5)c(F)c4)c3)cn2)CC1` (stereo not drawn) [Compound 424], the 50% degradation concentration (DC50) was greater than 1000 nM.

As for `CC(=O)NC1(C)CCN(c2cnc(Sc3cccc(NC(=O)c4ccc(N5CCC(N6CC=C(c7ccc(C(=O)NCc8ccc9c(c8)CN(C8CCC(=O)NC8=O)C9=O)nc7)CC6)CC5)c(F)c4)c3)cn2)CC1` (stereo not drawn) [Compound 425], the DC50 is greater than 1000 nM.

With `CC1(N)CCN(c2cnc(Sc3cccc(NC(=O)c4ccc(N5CCC(N6C=C(c7ncc(C(=O)NCc8ccc9c(c8)CN(C8CCC(=O)NC8=O)C9=O)o7)CC6)CC5)c(F)c4)c3)cn2)CC1` (stereo not drawn) [Compound 426], the half-maximal degradation concentration (DC50) was greater than 1000 nM.

With `C[C@H](N)C(=O)N[C@@H](Cc1ccccc1)C(=O)NC1(C)CCN(c2cnc(Sc3cccc(NC(=O)c4ccc(N5CCC(N6CC=C(c7ccc(C(=O)NCc8ccc9c(c8)CN(C8CCC(=O)NC8=O)C9=O)nc7)CC6)CC5)cc4)c3)cn2)CC1` (stereo partly drawn) [Compound 427], the DC50 was greater than 1000 nM.

`CC1(N)CCN(c2cnc(Sc3cccc(NC(=O)c4ccc(N5CCC(N6CC=C(c7cnc(C(=O)NCc8ccc9c(c8)CN(C8CCC(=O)NC8=O)C9=O)c(F)c7)CC6)CC5)nc4)c3)cn2)CC1` (stereo not drawn) [Compound 428]: the DC50 lay in the range of 100 to 1000 nM.

Turning to `CC1(N)CCN(c2cnc(Sc3cccc(NC(=O)c4cnc(N5CCC(N6CC=C(c7ccc(C(=O)NCc8ccc9c(c8)CN(C8CCC(=O)NC8=O)C9=O)nn7)CC6)CC5)cn4)c3)cn2)CC1` (stereo not drawn) [Compound 429], the DC50 is 100 to 1000 nM.

Regarding `CC1(N)CCN(c2cnc(Sc3cccc(NC(=O)c4cnc(N5CCC(N6CC=C(c7ccc(C(=O)NCc8ccc9c(c8)CN(C8CCC(=O)NC8=O)C9=O)nc7)CC6)CC5)cn4)c3)cn2)CC1` (stereo not drawn) [Compound 430], the DC50 was 100 to 1000 nM.

Take `CC1(N)CCN(c2cnc(Sc3cccc(NC(=O)c4ccc(N5CCC(N6CC=C(c7cnc(C(=O)NCc8ccc9c(c8)CN(C8CCC(=O)NC8=O)C9=O)c(Cl)c7)CC6)CC5)nc4)c3)cn2)CC1` (stereo not drawn) [Compound 431]: the DC50 was 100 to 1000 nM.

Regarding `CC1(N)CCN(c2cnc(Sc3cccc(NC(=O)c4ccc(C5=CCC(N6CC=C(c7ccc(C(=O)NCc8ccc9c(c8)CN(C8CCC(=O)NC8=O)C9=O)nc7)CC6)CC5)nc4)c3)cn2)CC1` (stereo not drawn) [Compound 432], the DC50 was greater than 1000 nM.

As to `COCC1(N)CCN(c2cnc(Sc3cccc(NC(=O)c4ccc(N5CCC(N6CC=C(c7ccc(C(=O)NCc8ccc9c(c8)CN(C8CCC(=O)NC8=O)C9=O)nn7)CC6)CC5)cc4)c3)cn2)CC1` (stereo not drawn) [Compound 433], the DC50 is greater than 1000 nM.

On to `COCC1(N)CCN(c2cnc(Sc3cccc(NC(=O)c4ccc(N5CCC(N6CC=C(c7ccc(C(=O)NCc8ccc9c(c8)CN(C8CCC(=O)NC8=O)C9=O)nc7)CC6)CC5)cc4)c3)cn2)CC1` (stereo not drawn) [Compound 434], for which the DC50 was less than 100 nM.

Take `CC1(N)CCN(c2cnc(Sc3cccc(NC(=O)c4ccc(N5CCC(N6CCN(c7ccc(C(=O)NCc8ccc9c(c8)CN(C8CCC(=O)NC8=O)C9=O)nc7)CC6)CC5)nc4)c3)cn2)CC1` (stereo not drawn) [Compound 436]: the half-maximal degradation concentration (DC50) lay within 100 to 1000 nM.

As to `CC1(N)CCN(c2cnc(Sc3cccc(NC(=O)c4ccc(N5CCC(N6CCN(c7ccc(C(=O)NCc8ccc9c(c8)CN(C8CCC(=O)NC8=O)C9=O)nn7)CC6)CC5)nc4)c3)cn2)CC1` (stereo not drawn) [Compound 437], the half-maximal degradation concentration (DC50) was less than 100 nM.

Consider `Cc1cc(N2CCC(N3CC=C(c4cnc(C(=O)NCc5ccc6c(c5)CN(C5CCC(=O)NC5=O)C6=O)c(F)c4)CC3)CC2)ccc1C(=O)Nc1cccc(Sc2cnc(N3CCC(C)(N)CC3)cn2)c1` (stereo not drawn) [Compound 438], for which the DC50 was less than 100 nM.

As for `Cc1cc(C(=O)Nc2cccc(Sc3cnc(N4CCC(C)(N)CC4)cn3)c2)ccc1N1CCC(N2CC=C(c3cnc(C(=O)NCc4ccc5c(c4)CN(C4CCC(=O)NC4=O)C5=O)c(Cl)c3)CC2)CC1` (stereo not drawn) [Compound 440], the half-maximal degradation concentration (DC50) is greater than 1000 nM.

Consider `Cc1cc(C(=O)Nc2cccc(Sc3cnc(N4CCC(C)(N)CC4)cn3)c2)ccc1N1CCC(N2CC=C(c3ccc(C(=O)NCc4ccc5c(c4)CN(C4CCC(=O)NC4=O)C5=O)nc3Cl)CC2)CC1` (stereo not drawn) [Compound 441], for which the DC50 was greater than 1000 nM.

As to `Cc1cc(N2CCC(N3CC=C(c4ccc(C(=O)NCc5ccc6c(c5)CN(C5CCC(=O)NC5=O)C6=O)nc4Cl)CC3)CC2)ccc1C(=O)Nc1cccc(Sc2cnc(N3CCC(C)(N)CC3)cn2)c1` (stereo not drawn) [Compound 444], the DC50 was less than 100 nM.

As for `CC1(N)CCN(c2cnc(Sc3cccc(NC(=O)c4ccc(N5CCC(N6CCN(c7ccc(C(=O)NCc8ccc9c(c8)CN(C8CCC(=O)NC8=O)C9=O)nn7)CC6)CC5)cn4)c3)cn2)CC1` (stereo not drawn) [Compound 447], the half-maximal degradation concentration (DC50) is greater than 1000 nM.

For the compound `CC1(N)CCN(c2cnc(Sc3cccc(NC(=O)c4ncc(N5CCC(N6CCN(c7ccc(C(=O)NCc8ccc9c(c8)CN(C8CCC(=O)NC8=O)C9=O)nn7)CC6)CC5)cn4)c3)cn2)CC1` (stereo not drawn) [Compound 449], the DC50 was less than 100 nM.

Consider `CC1(N)CCN(c2cnc(Sc3cccc(NC(=O)c4ccc(N5CCC(N6CCN(c7ccc(C(=O)NCc8ccc9c(c8)CN(C8CCC(=O)NC8=O)C9=O)nc7)CC6)CC5)nn4)c3)cn2)CC1` (stereo not drawn) [Compound 450], for which the DC50 was less than 100 nM.

Regarding `Cc1cc(C(=O)Nc2cccc(Sc3cnc(N4CCC(C)(N)CC4)cn3)c2)ccc1N1CCC(N2CC=C(c3cnc(C(=O)NCc4ccc5c(c4)CN(C4CCC(=O)NC4=O)C5=O)cc3Cl)CC2)CC1` (stereo not drawn) [Compound 452], the DC50 was less than 100 nM.

In the case of `Cc1cc(C(=O)Nc2cccc(Sc3cnc(N4CCC(C)(N)CC4)cn3)c2)ccc1N1CCC(N2CC=C(c3ccc(C(=O)NCc4ccc5c(c4)CN(C4CCC(=O)NC4=O)C5=O)cc3)CC2)CC1` (stereo not drawn) [Compound 453], the DC50 was 100 to 1000 nM.

As for `Cc1cc(N2CCC(N3CC=C(c4ccc(C(=O)NCc5ccc6c(c5)CN(C5CCC(=O)NC5=O)C6=O)cc4)CC3)CC2)ccc1C(=O)Nc1cccc(Sc2cnc(N3CCC(C)(N)CC3)cn2)c1` (stereo not drawn) [Compound 454], the DC50 lay within 100 to 1000 nM.

As to `Cc1cc(C(=O)NCc2ccc3c(c2)CN(C2CCC(=O)NC2=O)C3=O)ncc1C1=CCN(C2CCN(c3ccc(C(=O)Nc4cccc(Sc5cnc(N6CCC(C)(N)CC6)cn5)c4)cc3C)CC2)CC1` (stereo not drawn) [Compound 456], the DC50 was 100 to 1000 nM.

Consider `Cc1cc(C(=O)NCc2ccc3c(c2)CN(C2CCC(=O)NC2=O)C3=O)ncc1C1=CCN(C2CCN(c3ccc(C(=O)Nc4cccc(Sc5cnc(N6CCC7(CC6)CO[C@@H](C)[C@H]7N)cn5)c4)cc3F)CC2)CC1` (stereo partly drawn) [Compound 458], for which the 50% degradation concentration (DC50) was greater than 1000 nM.

In the case of `C[C@@H]1OCC2(CCN(c3cnc(Sc4cccc(NC(=O)c5ccc(N6CCC(N7CC=C(c8ccc(C(=O)NCc9ccc%10c(c9)CN(C9CCC(=O)NC9=O)C%10=O)cc8Cl)CC7)CC6)c(F)c5)c4)cn3)CC2)[C@@H]1N` (stereo partly drawn) [Compound 459], the DC50 is less than 100 nM.

In the case of `C[C@@H]1OCC2(CCN(c3cnc(Sc4cccc(NC(=O)c5ccc(N6CCC(N7CC=C(c8cnc(C(=O)NCc9ccc%10c(c9)CN(C9CCC(=O)NC9=O)C%10=O)cc8Cl)CC7)CC6)c(F)c5)c4)cn3)CC2)[C@@H]1N` (stereo partly drawn) [Compound 460], the DC50 is less than 100 nM.

In general, DC50 refers to the midpoint of the concentration-degradation curve.
